# Reference: patent US10617763B2, “Compositions and methods for the treatment of presbyopia” (Presbyopia Therapies, LLC, priority 2013, dated 2020)
# Where “and” joins values, the source holds several entries; their conditions need not be identical. Equal values may be shown once. Read-outs that look alike come from different tables or passages of the source.
# How the values were obtained:
# eye [1] = test: Effect of concentration of aceclidine and tropicamide, topical instillation (Example 2); assay type: in vivo, human
# Source text: (§1) All baseline vision data was based on vision corrected with distance contact lenses.
# eye [2] = test: Modulation of aceclidine concentrations in a preferred embodiment (Example 6); assay type: in vivo, human
# Description: Example 6 Modulation of Aceclidine Concentrations in a Preferred Embodiment
# For 1.35% w/v aceclidine— • Stinging on topical instillation 0.25/4.0 (lasting about 2-5 seconds); • Induced redness at 10 minutes: 1.0 to 1.5/4.0; • Induced redness at 30 minutes: 0.0 to 0.25/4.0; • Comfort: very high. • Wetting: very high, the eye maintaining sensation of improved wetting for most of a 24 hour period after a single topical instillation. • Depth of Focus distance: excellent. • Depth of Focus near: excellent.
# In testing the above formulations on several subjects it was discovered that there is a slight range in clinical effect depending on the concentration of aceclidine, where 1.35%-1.55% w/v aceclidine is preferred, but for which 1.35% w/v and 1.45% w/v confer the desired benefits on most subjects.
# Further, it is discovered that the clinical effect of 1.35% w/v aceclidine can be improved when instilled as follows: […]
# eye [3] = test: Effect of concentration of aceclidine, brimonidine, guanfacine, fadolmidine, tropicamide and additives (Example 3); assay type: in vivo, human
# Description: All percentages are w/v. Scores for nasal congestion, stinging initial, stinging, 3 min, redness initial, redness 15 min, whitening, pain and overall are out of 4.
# “pt” reflects size of print materials, 4 being equivalent to 20/20 vision and 3 to 20/15 vision.
# D/C stands for discontinued after eye washing due to intolerable stinging.
# as §1
# AB4T and AB6T were repeated both monocularly and binocularly.
# presbyopic subjects = test: Effect of aceclidine on vision of subjects aged 47 to 67 years (Example 1); assay type: in vivo, human; settings: for L Post Dist / L Post Near / R Post Dist / R Post Near: Post Gtt 15″; for L Post Dist: left eye distance vision; for L Post Near: left eye near vision; for R Post Dist: right eye distance vision; for R Post Near: right eye near vision; for Effect: duration of effect
# Description: Example 1 Effect of Aceclidine on Vision of Subjects Aged 47 to 67 Years
# As aceclidine is an […], the clinical effectiveness may vary with different ratios. For the present studies a nearly exact 50:50 ratio of stereoisomers was measured as best determined by polarimetry.
# After administration of the composition all subjects experienced an improvement in their near vision that lasted from 7 to 12 hours.
# eye [4] = settings: for indoor night vision: pH 7.5; for dimming: pH 7.0
# Source text: However, because α-2 agonists are shifted to their ionized equilibrium an acidic pH is somewhat offset by the fact such agonists exert greater affect at neutral or alkaline pH. Therefore each α-2 agonist has a preferred pH range depending on its lipophilicity and pKa value when added to the inventive compositions with aceclidine.
# [5] = tested on: emmetrope over the age of 45; test: Effects of pilocarpine and aceclidine with or without tropicamide and carrier on near and distance vision (FIG. 1); assay type: in vivo, human
# Source text: Subject is an emmetrope over the age of 45 with a baseline near vision of 20.100 and baseline distance vision of 20.20. Topical administration to the eye of 1% w/v pilocarpine in saline solution results in an improvement of near vision to 20.40 (8a), however this improvement comes at the expense of a reduction in distance vision to 20.100 (8b). […] A proper drug carrier can also have a beneficial effect.
# [6] = Stability of aceclidine in cold chain storage, HPLC (Example 10); assay type: physicochemical; settings: Example 10 composition
# Description: Example 10 Stabile Aceclidine Formulations
# 20 samples of the above composition were divided evenly and stored at 25° C. and 4° C. Prior to storage, initial concentrations of aceclidine were measured using […] (“HPLC”). The amount of aceclidine in each solution was calculated by the area under the principal peak compared to a reference solution of aceclidine. Samples were then subject to storage for 3 months. Aceclidine measurements were taken at 1, 2 and 3 months.
# eye [7] = settings: cited from earlier work
# eye [8] = test: Compositions containing mannitol with various nonionic surfactants (Example 15, Table 10); design: species or system human; settings: in vivo
# Source text: Example 15. Use of a Compound Containing Mannitol with Various Nonionic Surfactants Compositions
# Of those tested only Brij® 35 was marginal due to the significant corneal irritation, hyperemia and […] that resulted.
# Duration was excellent for each nonionic surfactant tested.
# [9] = aceclidine 1.1% w/v plus 0.125% w/v tropicamide (subjects 4 and 5)
# [10] = aceclidine 1.5% w/v, same vehicle, one subject
compound,measurement,setting,value
"CC(=O)OC1CN2CCC1CC2 (racemic) [Aceclidine, aceclidine]",Time (hr),eye [1]; duration of the effect,at least 10 hr
same,Miosis (OU) (1 hr),"eye [1]; pupil size, both eyes, 1 hour after topical instillation, baseline pupil 3 mm photopic, 5 mm mesopic",1.63 mm
same,Comfort,eye [2]; 1.35% w/v aceclidine,very high
same,Depth of Focus distance,eye [2]; 1.35% w/v aceclidine,excellent
same,Depth of Focus near,eye [2]; 1.35% w/v aceclidine,excellent
same,Stinging on topical instillation,"eye [2]; 1.35% w/v aceclidine in the preferred embodiment of Example 6, lasting about 2-5 seconds",0.25 /4.0
same,near vision improvement,eye [3]; aceclidine 1.25% w/v (not shown),20.25-20.30
same,duration of corrected near and distance vision to 20.20 or better,eye [3]; aceclidine 1.55% w/v,at least 6 hours
same,size of the pupil,"eye [3]; aceclidine 1.55% w/v, 30 minutes after topical instillation",about 1.63 mm
same,duration (hrs),eye [3]; in vivo,about 7.5 hrs
same,L Post Dist,presbyopic subjects; [9],20.15 and 20.20
same,L Post Dist,presbyopic subjects; [10],20.20 (2×) and 20.30 and 20.25 (2×)
same,L Post Near,presbyopic subjects; [9],20.15 and 20.25
same,L Post Near,presbyopic subjects; [10],20.15 (3×) and 20.30 and 20.20
same,R Post Dist,presbyopic subjects; [9],20.15 and 20.20
same,R Post Dist,"presbyopic subjects; aceclidine 1.5% w/v in 5.5% HPβCD, 0.75% CMC, 0.25% NaCl, 0.01% BAK, one subject",20.20 (3×) and 20.25 (2×)
same,R Post Near,presbyopic subjects; [9],20.20 and 20.25
same,R Post Near,presbyopic subjects; [10],20.15 (3×) and 20.20 and 20.25
same,Effect,presbyopic subjects; [9],12.00 h and 7.00 h
same,Effect,presbyopic subjects; [10],8.00 h (4×) and 9.00 h
same,anterior chamber shallowing,eye [4]; with further inclusion of a cycloplegic agent,0.04 mm
same,time period of near vision improvement,[5]; 1.55% w/v aceclidine in saline solution,6 h
same,near vision,[5]; aceclidine in carrier plus 0.042% w/v tropicamide,20.15
same,near vision,"[5]; aceclidine in carrier: 5.5% HPβCD, 0.75% CMC, 0.25% NaCl, 0.01% BAK",better than 20.20
same,distance vision,"[5]; miotic in saline solution (1% w/v pilocarpine; 1.55% w/v aceclidine), baseline distance vision 20.20",without any effect on the baseline distance vision
same,near vision,"[5]; miotic in saline solution (1% w/v pilocarpine; 1.55% w/v aceclidine), baseline near vision 20.100",20.40
same,"aceclidine remaining, 4° C., 1 month",[6],93%
same,"aceclidine remaining, 4° C., 2 months",[6],92%
same,"aceclidine remaining, 4° C., 3 months",[6],88%
same,"aceclidine remaining, 4° C., Initial",[6],100%
same,"aceclidine remaining, 25° C., 1 month",[6],92%
same,"aceclidine remaining, 25° C., 2 months",[6],75%
same,"aceclidine remaining, 25° C., 3 months",[6],50%
same,"aceclidine remaining, 25° C., Initial",[6]; pH about 4.75,100%
Brc1c(NC2=NCCN2)ccc2nccnc12 [brimonidine],"rebound redness, patients",eye [7]; brimonidine 0.20% w/v (Alphagan®) twice daily,25%
same,"tachyphylaxis of pupil modulation, treated subjects","eye [7]; brimonidine 0.20% w/v topically for night vision, within four weeks of use",~100%
CC[C@@H]1C(=O)OC[C@@H]1Cc1cncn1C [pilocarpine],distance blur,eye [7]; pilocarpine instilled monocularly,2-3 lines
same,pupil size,"eye [7]; upon instillation of 1.0% pilocarpine, most subjects",≥ 2.3 mm
Poloxamer 188,Redness 1 hr,eye [8],0.25-2.5
same,Stinging,eye [8],0-2
Poloxamer 407,Redness 1 hr,eye [8],1
same,Stinging,eye [8],0.5
Polyoxyl 35 castor oil,Redness 1 hr,eye [8],0.25
same,Stinging,eye [8],0
Polysorbate 80,Redness 1 hr,eye [8],0.5
same,Stinging,eye [8],0.25
Tyloxapol,Redness 1 hr,eye [8],0.25-2.5
same,Stinging,eye [8],0-2
tropicamide,indoor night vision,eye [4]; 0.035% w/v tropicamide in 1.55% w/v aceclidine composition,slight dimming
same,dimming,eye [4]; 0.040% w/v tropicamide in 1.53% or 1.45% w/v aceclidine composition,moderate dimming
same,indoor night vision,eye [4]; 0.042% w/v tropicamide in 1.55% w/v aceclidine composition,normal indoor night vision
same,dimming,eye [4]; 0.044% w/v tropicamide in 1.53% or 1.45% w/v aceclidine composition,dimming became almost undetectable
same,brow ache,eye [4]; tropicamide 0.01% w/v with aceclidine,slightly reduce brow ache
same,brow ache,eye [4]; tropicamide 0.030% w/v with aceclidine,further reduce brow ache
same,brow ache,eye [4]; tropicamide 0.04% to about 0.07% w/v with aceclidine,completely eliminate brow ache
